Patent US12037354B2, “Cyclic pantetheine derivatives and uses thereof” (VectivBio Comet AG, priority 2018, dated 2024)

What was measured:
Format in all cases: cell-based, human
[1] = system: Venular Endothelial cells (HUVEC) (4H system); assay: BioMAP 4H system, Example 826
Description: (§1) The BioMAP platform (BioMAP® Diversity PLUS Panel from Eurofins) is an in vitro phenotypic profiling technology that screened the compounds of the present disclosure (hereafter indicated as test agents) in human primary cell-based systems modelling complex tissue and disease states. The BioMAP assays were performed using the Eurofin's BioMAP Technology Platform as (see references 1 to 13 in the example 824 section) to model different diseases on primary cell-based model systems. These systems consisted of either single primary cell types or co-culture cells. Adherent cell types were cultured or co-cultured in 96 or 384-well plates until confluence followed by the addition of compounds prepared in DMSO at a final concentration of ≤0.1%. In each cell-based system, primary cells from heathy donors (2-6 donors) were pooled and treated with compounds at 1 and 10 μM dose 1 h prior to stimulation and remain in culture as indicated in
(§2) Example 825, Example 826, Example 827, Example 828, Example 829, Example 830, Example 831, Example 832, Example 833, Example 834, Example 835, Example 836 and Example 837. For on the BioMAP® Diversity PLUS® Panel, please see the following references, which are incorporate herein.
Following the general procedure as described in Example 824, Venular Endothelial cells (HUVEC) (4H system) were treated with IL-4 and histamine for 24 h to model Th2 driven allergy and autoimmunity in the presence or absence of compounds. Biomarkers read out were; MCP-1, Eotaxin-3. VCAM-1, P-selectin, uPAR (CD87), SRB and VEGFRII.

[2] = system: Peripheral blood mononuclear cells co-cultured with B-cells (BT system); assay: BioMAP BT system, Example 829
Description: as §1, §2
Following the general procedure as described in Example 824, Peripheral blood mononuclear cells were co-cultured with B-cells (BT system) were treated with either α-IgM and TCR ligands for 72 h in the presence or absence of the compounds to model asthma, allergy, oncology and autoimmunity. Biomarkers read out were; B-cell proliferation, PBMC cytotoxicity, secreted IgG, sIL-17A, sIL-17F, sIL-2, sIL-6 and s-TNFα.

[3] = system: Coronary artery smooth muscle cells (CASM3C system); assay: BioMAP CASM3C system, Example 832
Description: as §1, §2
Following the general procedure as described in Example 824, Coronary artery smooth muscle cells (CASM3C system) were treated with IL-1β, TNFα and IFNγ for 24 h in the presence or absence of the compounds to model cardiovascular inflammation and restenosis. Biomarker reads out were; MCP-1, VCAM-1, Throbomodulin, Tissue factor, uPAR, IL-8, MIG, HLA-DR, IL-6, LDLR, M-CSF, PAI-1, Proliferation, SAA and SRB

[4] = system: Dermal fibroblasts (HDF3CGF system); assay: BioMAP HDF3CGF system, Example 833
Description: as §1, §2
Following the general procedure as described in Example 824, Dermal fibroblasts (HDF3CGF system) were treated with IL-1β, TNFα and IFNγ, EGF, bFGF and PDGF-BB for 24 h in the presence or absence of the compounds to model fibrosis and chronic inflammation. Biomarkers read out were; MCP-1, VCAM-1, ICAM-1, Collagen-I, Collagen-III, IP-10, I-TAC, IL-8, MIG, EGFR, M-CSF, MMP-1, PAI-1, SRB, TIMP-1, TIMP-2 and proliferation was measured for 72 h.

[5] = system: Bronchial epithelial cells co-cultured with dermal fibroblast (BF4T system); assay: BioMAP BF4T system, Example 830; details: for % increase in Eotaxin-3 / % increase in VCAM-1: 10 uM
Description: as §1, §2
Following the general procedure as described in Example 824, Bronchial epithelial cells were co-cultured with dermal fibroblast (BF4T system) and were treated with TNFα and IL-4 for 24 h in the presence or absence of the compounds to model asthma, allergy, fibrosis, lung inflammation. Biomarkers read out were; MCP-1, Eotaxin-3, VCAM-1, ICAM-1, CD90, IL-8, IL-1α, keratin 8/18, MMP-1, MMP-3, MMP-9, PAI-1, SRB, tPA, uPA.

[6] = system: Bronchial epithelial cells (BE3C system); assay: BioMAP BE3C system, Example 831
Description: as §1, §2
Following the general procedure as described in Example 824, Bronchial epithelial cells (BE3C system) were treated with IL-1f3, TNFα and IFNγ for 24 h in the presence or absence of the compounds to model lung inflammation and chronic obstructive pulmonary disease (COPD). Biomarkers read out were; ICAM-1, uPAR, IP-10, I-TAC, IL-8, MIG, EGFR, HLA-DR, IL-1α, Keratin 8/18, MMP-1, MMP-9, PAI-1, SRB, tPA, uPA.

[7] = system: Keratinocytes co-cultured with dermal fibroblast (KF3CT system); assay: BioMAP KF3CT system, Example 834
Description: as §1, §2
Following the general procedure as described in Example 824, Keratinocytes were co-cultured with dermal fibroblast (KF3CT system) and treated with […], TNFα, IFNγ and TGFβ for 24 h in the presence or absence of the compounds to model psoriasis, dermatitis and skin biology. Biomarkers read out were; MCP-1, ICAM-1, IP-10, IL-8, MIG, IL-1α, MMP-9, PAI-1, SRB, TIMP-2, uPA.

SMILES | % decrease in E-Selectin ([1]; 4H system, 1 uM) [%] | % decrease in Eotaxin-3 ([1]; 4H system, 1 uM) [%] | % decrease in VEGFRII ([1]; 4H system, 1 uM) [%] | % decrease in E-Selectin ([1]; concentration tested 1 uM) [%] | % decrease in Eotaxin-3 ([1]; concentration tested 1 uM) [%] | % decrease in VEGFRII ([1]; concentration tested 1 uM) [%] | % decrease in sTNFα ([2]; BT system, 1 uM) [%] | % increase in B-cell Proliferation ([2]; BT system, 10 uM) [%] | % increase in sIL-6 ([2]; BT system, 10 uM) [%] | % increase in B-cell Proliferation ([2]; concentration tested 10 uM) [%] | % decrease in LDLR ([3]; 1 uM) [%] | % decrease in VCAM-1 ([3]; 1 uM) [%] | % decrease in Thrombomodulin ([3]; 10 uM) [%] | % decrease in TIMP-1 ([4]; 1 uM) [%] | % increase in Eotaxin-3 [5] [%] | % decrease in MMP-9 ([6]; 1 uM) [%] | % decrease in MCP-1 ([7]; 1 uM (Example 927)) [%] | % decrease in MCP-1 ([7]; 1 uM (Example 928)) [%] | % decrease in MCP-1 ([1]; 4H system, 10 uM) [%] | % decrease in MCP-1 ([1]; concentration tested 10 uM) [%] | also measured
C/C=C/C(=O)SCCNC(=O)CCNC(=O)[C@@H]1OP(=O)(O)OCC1(C)C [Compound 36] | ≥20 | ≥10 | ≥20 | ≥20 | ≥10 | ≥20 | ≥10 | ≥20 | ≥10 | ≥20 | ≥10 | ≥10 | ≥20 | ≥10 | – | – | – | – | – | – | % decrease in MCP-1 ([1]; 4H system, 1 uM): ≥10%; % decrease in MCP-1 ([1]; concentration tested 1 uM): ≥10%; % decrease in uPAR ([3]; 1 uM): ≥10%; % decrease in HLA-DR ([3]; 10 uM): ≥10%; % decrease in M-CSF ([3]; 10 uM): ≥10%; % decrease in Tissue Factor ([3]; 10 uM): ≥10%; % decrease in EGFR ([4]; 1 uM): ≥10%; % decrease in TIMP-2 ([4]; 1 uM): ≥20%; % decrease in MMP-1 ([4]; 10 uM): ≥10%; % increase in 72 Hour Proliferation ([4]; 10 uM): ≥10%
CC(=O)CC(=O)SCCNC(=O)CCNC(=O)[C@@H]1OP(=O)(O)OCC1(C)C [Compound 42] | ≥10 | ≥10 | ≥10 | ≥10 | ≥10 | ≥10 | – | – | – | – | – | – | ≥10 | – | ≥10 | ≥10 | ≥10 | ≥10 | – | – | % decrease in B-cell proliferation ([2]; BT system, 10 uM): ≥10%; % decrease in sIL-17 ([2]; BT system, 10 uM): ≥20%; % decrease in sTNFα ([2]; BT system, 10 uM): ≥20%; % decrease in B-cell proliferation ([2]; concentration tested 10 uM): ≥10%; % decrease in sIL-17 ([2]; concentration tested 10 uM): ≥20%; % increase in VCAM-1 [5]: ≥10%; % decrease in IL-8 ([3]; 10 uM): ≥10%; % decrease in LDLR ([3]; 10 uM): ≥10%; % decrease in TIMP-2 ([4]; 10 uM): ≥10%
CCOP1(=O)OCC(C)(C)[C@H](C(=O)NCCC(=O)NCCSC(=O)CCC(=O)O)O1 (stereo partly shown) [Compound 61] | – | – | – | – | – | – | – | ≥10 | ≥10 | ≥10 | – | ≥10 | ≥20 | – | ≥10 | ≥10 | ≥20 | ≥20 | ≥10 | ≥10 | % decrease in E-Selectin ([1]; 4H system, 10 uM): ≥10%; % decrease in E-Selectin ([1]; concentration tested 10 uM): ≥10%; % decrease in Tissue Factor ([3]; 1 uM): ≥10%; % decrease in LDLR ([3]; 10 uM): ≥10%; % decrease in TIMP-1 ([4]; 10 uM): ≥10%
COC(=O)CCC(=O)SCCNC(=O)CCNC(=O)[C@@H]1OC(=O)OCC1(C)C [Compound 451] | ≥10 | ≥10 | ≥10 | ≥10 | ≥10 | ≥10 | ≥20 | – | – | – | – | ≥10 | – | ≥10 | ≥10 | ≥10 | ≥10 | ≥10 | ≥10 | ≥10 | % increase in B-cell Proliferation ([2]; BT system, 1 uM): ≥10%; % increase in B-cell Proliferation ([2]; concentration tested 1 uM): ≥10%; % increase in VCAM-1 [5]: ≥10%; % decrease in tPA ([6]; 10 uM): ≥10%; % decrease in Thrombomodulin ([3]; 1 uM): ≥10%; % decrease in HLA-DR ([3]; 10 uM): ≥10%; % increase in IL-6 ([3]; 10 uM): ≥10%; % decrease in Collagen III ([4]; 1 uM): ≥10%
COC(=O)CCC(=O)SCCNC(=O)CCNC(=O)[C@@H]1OC(C)(CC(=O)OC)OCC1(C)C (stereo partly shown) [Compound 633] | ≥20 | ≥10 | ≥10 | ≥20 | ≥10 | ≥10 | – | ≥20 | ≥20 | ≥20 | ≥10 | ≥10 | – | ≥20 | ≥10 | – | ≥10 | ≥10 | ≥10 | ≥10 | % decrease in sTNFα ([2]; BT system, 10 uM): ≥10%; % increase in sIL-2 ([2]; BT system, 10 uM): ≥20%; % decrease in MMP-9 ([5]; 1 uM): ≥10%; % increase in IL-8 ([6]; 1 uM): ≥10%; % decrease in MMP-9 ([6]; 10 uM): ≥10%; % decrease in HLA-DR ([3]; 1 uM): ≥10%; % decrease in M-CSF ([3]; 1 uM): ≥10%; % decrease in Thrombomodulin ([3]; 1 uM): ≥10%; % decrease in Tissue Factor ([3]; 1 uM): ≥10%; % decrease in uPAR ([3]; 1 uM): ≥10%; % decrease in IL-8 ([3]; 10 uM): ≥10%; % decrease in EGFR ([4]; 1 uM): ≥10%; % decrease in TIMP-2 ([4]; 1 uM): ≥10%; % increase in 72 Hour Proliferation ([4]; 10 uM): ≥10%; % increase in PAI-I ([4]; 10 uM): ≥10%
